# ChEMBL document CHEMBL1148032, “Hexaprenoid hydroquinones, novel inhibitors of the reverse transcriptase of human immunodeficiency virus type 1” (J Nat Prod, 1993)
# How the values were obtained:
# [1] = molecular target: Human immunodeficiency virus type 1 reverse transcriptase (Human immunodeficiency virus 1) (UniProt Q72547); experiment: (§1) Inhibition of DNA dependent DNA polymerase activity of HIV1 BH10 recombinant reverse transcriptase p66/p51 assessed as residual enzyme activity
# [2] = molecular target: T1, Human immunodeficiency virus type 1 reverse transcriptase (Human immunodeficiency virus 1, UniProt Q72547); experiment: as §1
# [3] = molecular target: Human immunodeficiency virus type 1 reverse transcriptase (Human immunodeficiency virus 1) (UniProt Q72547); experiment: (§2) Inhibition of RNA dependent DNA polymerase activity of HIV1 BH10 recombinant reverse transcriptase p66/p51 assessed as residual enzyme activity by poly(rA)n.oligo(dT)12-18-directed incorporation of [3H]dTTP
# [4] = molecular target: T1, Human immunodeficiency virus type 1 reverse transcriptase; experiment: as §2
# [5] = molecular target: T1, Human immunodeficiency virus type 1 reverse transcriptase; experiment: Inhibition of RNase H activity of HIV1 BH10 recombinant reverse transcriptase p66/p51 assessed as residual enzyme activity […]
SMILES,Inhibition [1],IC50 [2],Inhibition [3],IC50 [4],IC50 [5]
CC1=C(Cc2cc(O)ccc2O)[C@]2(C)CCC[C@@](C)(CC[C@@]3(O)[C@H](C)CC[C@@H]4OC(C)(C)CCC[C@@]43C)[C@H]2CC1,14.7 µM,1.4 µM,18.1 µM,2.5 µM,> 250 µM
C[C@@H]1CC=C2[C@@H](CCC[C@@]2(C)CC[C@@]2(C)C3=CCCC(C)(C)[C@H]3CC[C@@H]2C)[C@]1(C)Cc1cc(O)ccc1O,44.4 µM,4.2 µM,11.1 µM,2.8 µM,> 250 µM
CC1(C)CCC[C@]2(C)OC3CC[C@](C)(C4CC[C@]5(C)C4CC[C@]4(C)C6=C(CC54)C(=O)C=CC6=O)[C@]3(C)CCC12 (stereo not given in full),54.5 µM,4.5 µM,28.6 µM,13.2 µM,> 250 µM
CC(=O)CC[C@@H]1[C@](C)(CC[C@@]2(O)[C@H](C)CC[C@@H]3OC(C)(C)CCC[C@@]32C)CCC[C@@]1(C)C(=O)Cc1cc(OS(=O)(=O)O)ccc1OS(=O)(=O)O [SHAAGROCKOL B],40 µM,6.7 µM,21.2 µM,8.5 µM,> 250 µM
CC1=C(Cc2cc(OS(=O)(=O)O)ccc2OS(=O)(=O)O)[C@]2(C)CCC[C@@](C)(CC[C@@]3(O)[C@H](C)CC[C@@H]4OC(C)(C)CCC[C@@]43C)[C@H]2CC1 [SHAAGROCKOL C],5 µM,0.8 µM,9.3 µM,3.3 µM,> 250 µM
CC1(C)CCC[C@]2(C)OC3CC[C@](C)(C4CC[C@]5(C)C4CC[C@]4(C)c6c(OS(=O)(=O)O)ccc(OS(=O)(=O)O)c6CC54)[C@]3(C)CCC12 (stereo not given in full) [TOXICOL A],5.2 µM,2.7 µM,6.5 µM,3.1 µM,> 250 µM
CC1(C)CCC[C@]2(C)OC3CC[C@](C)(C4CC[C@]5(C)C4CC[C@]4(C)c6c(O)ccc(O)c6CC54)[C@]3(C)CCC12 (stereo not given in full) [TOXICOL B],56.2 µM,8.2 µM,11.1 µM,3.7 µM,> 250 µM
C[C@@H]1CC=C2[C@@H](CCC[C@@]2(C)CC[C@@]2(C)C3=CCCC(C)(C)[C@H]3CC[C@@H]2C)[C@]1(C)Cc1cc(OS(=O)(=O)O)ccc1OS(=O)(=O)O [TOXIUSOL SODIUM],41.6 µM,6.6 µM,4.6 µM,1.5 µM,> 250 µM
